Reference: article PMC8586984, “Antiviral Potential of Naphthoquinones Derivatives Encapsulated within Liposomes” (Molecules, 2021)

Columns and labels:
Cytotoxicity assay (MTT) = assay type: cell-based, African green monkey (Cercopithecus aethiops); conditions: African green monkey, free (not encapsulated), Vero cells
Protocol: Initially, we evaluated the influence of liposomes on cell viability. For this, monolayers of Vero cells (10^4 cells/mL) were incubated with several concentrations of 2-aminomethyl-3-hydroxy-1,4 naphthoquinone derivatives that either were or were not encapsulated in the liposome (0.5 to 10 μM) for 48 h at 37 °C (Table 2). Following this, 1 mg/mL of 3-(4,5-Dimethylthiazol-2-yl)-2,5 Diphenyl Tetrazolium Bromide was added to each well for 4 h at 37 °C and the resulting purple formazan was followed at 570 nm. Since liposomes are considered an excellent delivery system, it may be reasonable for the liposome to increase the cytotoxic effect on cells.
Vero cells cultivated in 96-multiwell plates (1 × 10^4 cells/well) were incubated with liposomes coupled to 2-aminomethyl-3-hydroxy-1,4-naphthoquinones in different concentrations (0.5, 1, 5 and 10 μM) for 48 h at 37 °C and 5% CO2 atmosphere. Then, 50 μL of 3-(4,5-dimethylthiazol-2-yl)-2,5 diphenyl MTT (1 mg/mL, Sigma-Aldrich, St Louis, MO, USA) was added to each well for 4 h at 37 °C [48]. The MTT reduction in living cells creates formazan, a purple compound that is absorbed at 570 nm. The 50% cytotoxic concentration (CC50) was calculated by linear regression analysis of the dose–response curves.

BALB/c = system: BALB/c; set-up: method as in earlier work; conditions: oral administration, ref [37]; cited from earlier work
HSV-1 strain SC-16 = assay: Yield reduction assay; assay type: cell-based, Herpes Simplex Virus 1; conditions: for EC50: Human alphaherpesvirus 1, SC16; for SI (CC50/EC50 ratio): free (non-encapsulated) derivatives, concentrations up to 10 μM
Protocol: Briefly, after incubation with HSV-1 (MOI of 0.1) for 1 h at 37 °C, cells were washed with MEM 5% FCS and incubated with acyclovir, […] from 0.01 to 10 μM for 24 h in atmosphere, with 5% CO2 at 37 °C. After the dilution (1:10) of the viral suspension, new 24-well plates were used to determine the EC50 values, based on viral control.
For all antiviral assays, strain SC-16 HSV-1 was used at a multiplicity of infection (MOI) of 0.1 to infect Vero cells at 3 × 10^5 cells/well using a modified yield reduction assay. All aminomethylnaphthoquinone derivatives were previously diluted in pre-chilled MEM with 5% FCS.
To determine the HSV-1 title, Vero cells maintained in 24-multiwell plates (3 × 10^5 cell/well) were infected with HSV-1 strain SC-16 ([…]) for 1 h at 37 °C and 5% CO2 atmosphere.
After the removal of the viral inoculum, cells were treated with 0.01 µM to 10 µM of compound 1, 2, 3 and ACV encapsulated in liposomes for 24 h at 37 °C and 5% CO2 atmosphere. Then, the cells were subjected to three cycles of freezing and thawing and the inoculum diluted (1:10) to a new infection in 24-multiwell plates (10^5 cells/well) for 1 h at 37 °C and 5% CO2 atmosphere. The cells were covered with MEM 2X, 5% FCS and 2% methylcellulose for 48h at 37 °C and the viral title was determined by the number of viral plaque units per mL (PFU/mL). EC50 values, which means the drug concentration able to inhibit 50% of the viral plaque formation, were determined by linear regression compared to the untreated infected control.

HSV-1 = system: HSV-1; set-up: method as in PMID 24493066, PMID 26913545; conditions: free compounds, previous studies against HSV-1; ref [36],[38]; cited from earlier work

In the case of CCCCNC(C1=C(O)C(=O)c2ccccc2C1=O)c1ccc(Cl)cc1Cl (stereo not drawn) [compound 1], the CC50 at 48 h (Cytotoxicity assay (MTT)) is listed as 19 ± 1 µM, the “Effect on transaminases level or kidneys functions” value (BALB/c) is listed as “no effect on transaminases level or kidneys functions” and the EC50 (HSV-1 strain SC-16) is listed as 1.98 ± 0.3 µM. For the same molecule, the “SI (CC50/EC50 ratio)” value (HSV-1 strain SC-16) was 9.6.
With O=C1C(O)=C(C(NCc2ccccc2)c2ccc([N+](=O)[O-])cc2)C(=O)c2ccccc21 (stereo not drawn) [compound 3] the CC50 at 48 h (Cytotoxicity assay (MTT)) was 17 ± 2 µM, the EC50 (HSV-1 strain SC-16) was 3.1 µM and the “SI (CC50/EC50 ratio)” value (HSV-1 strain SC-16) was 5.48.
For Nc1nc2c(ncn2COCCO)c(=O)[nH]1 [Acyclovir, acyclovir, reference compound], the CC50 at 48 h (Cytotoxicity assay (MTT)) is given as 15 ± 1 µM and the SI (HSV-1) is given as 0.80.
For O=C1C(O)=C(C(NCc2ccccc2)c2ccc(Cl)cc2Cl)C(=O)c2ccccc21 (stereo not drawn) [compound 2], the CC50 at 48 h (Cytotoxicity assay (MTT)) was 22 ± 2 µM, the EC50 (HSV-1 strain SC-16) was 1.06 ± 0.49 µM and the “SI (CC50/EC50 ratio)” value (HSV-1 strain SC-16) was 20.75.
